Where “and” joins values, the source holds several entries; their conditions need not be identical. Equal entries are not always repeated. Where two headings read alike, the source gives them in different places.
Assay: in vivo
Format: in vivo, mice
Conditions: plasma, mice, plasma; for AUC: read-out: AUC (converted); for Final plasma concentration, individual sample: IP 10 mg/kg, single animal, D=1

Q: For `O=C([O-])C1CCC2(CC1)CC(Nc1ncnc3[nH]c4c(F)cccc4c13)C2.[Na+]` (stereo not shown) [Compound 77, [Na+].[O-]C(=O)C1CCC2(CC(C2)NC=3N=CN=C4NC=5C(F)=CC=CC5C34)CC1], which concentration at 120 min (male, CD-1, mouse, iv, 10 mg/kg, IV 10 mg/kg, 120 min, read-out: Plasma concentration C (mean)) is on record?
A: 4090 ng/mL

Q: What about the concentration at 240 min (male, CD-1, mouse, iv, 10 mg/kg, IV 10 mg/kg, 240 min, single animals, read-out: Plasma concentration, Final (individual mouse)) of the same molecule?
A: 2370 ng/mL

Q: And the concentration at 240 min (male, CD-1, mouse, iv, 10 mg/kg, IV 10 mg/kg, 240 min, read-out: Plasma concentration C (mean))?
A: 2080 ng/mL

Q: What about the concentration at 360 min (male, CD-1, mouse, iv, 10 mg/kg, IV 10 mg/kg, 360 min, single animals, read-out: Plasma concentration, Final (individual mouse)) of the same molecule?
A: 1260 ng/mL

Q: And the concentration at 360 min (male, CD-1, mouse, iv, 10 mg/kg, IV 10 mg/kg, 360 min, read-out: Plasma concentration C (mean))?
A: 1730 ng/mL

Q: What about the concentration at 480 min (male, CD-1, mouse, iv, 10 mg/kg, IV 10 mg/kg, 480 min, read-out: Plasma concentration C (mean)) of the same molecule?
A: 1240 ng/mL

Q: And the concentration at 1440 min (male, CD-1, mouse, iv, 10 mg/kg, IV 10 mg/kg, 1440 min, read-out: Plasma concentration C (mean))?
A: 43.2 ng/mL

Q: What about the AUC (male, CD-1, mouse, iv, 10 mg/kg i.v.) of the same molecule?
A: 46200 ng·h/mL

Q: What about the bioavailability (male, CD-1, mouse, oral, 30 mg/kg p.o. vs 10 mg/kg i.v.) of the same molecule?
A: 78%

Q: What about the concentration at 5 min (male, CD-1, mouse, po, 30 mg/kg, PO 30 mg/kg, 5 min, read-out: Plasma concentration C (mean)) of the same molecule?
A: 4340 ng/mL

Q: What about the concentration at 15 min (male, CD-1, mouse, po, 30 mg/kg, PO 30 mg/kg, 15 min, single animals, read-out: Plasma concentration, Final (individual mouse)) of the same molecule?
A: 17600 ng/mL

Q: What about the concentration at 15 min (male, CD-1, mouse, po, 30 mg/kg, PO 30 mg/kg, 15 min, read-out: Plasma concentration C (mean)) of the same molecule?
A: 24200 ng/mL

Q: And the concentration at 30 min (male, CD-1, mouse, po, 30 mg/kg, PO 30 mg/kg, 30 min, single animals, read-out: Plasma concentration, Final (individual mouse))?
A: 23000 ng/mL

Q: What about the concentration at 30 min (male, CD-1, mouse, po, 30 mg/kg, PO 30 mg/kg, 30 min, read-out: Plasma concentration C (mean)) of the same molecule?
A: 21700 ng/mL

Q: What about the concentration at 60 min (male, CD-1, mouse, po, 30 mg/kg, PO 30 mg/kg, 60 min, single animals, read-out: Plasma concentration, Final (individual mouse)) of the same molecule?
A: 24400 ng/mL

Q: And the concentration at 60 min (male, CD-1, mouse, po, 30 mg/kg, PO 30 mg/kg, 60 min, read-out: Plasma concentration C (mean))?
A: 19600 ng/mL

Q: What about the concentration at 120 min (male, CD-1, mouse, po, 30 mg/kg, PO 30 mg/kg, 120 min, single animals, read-out: Plasma concentration, Final (individual mouse)) of the same molecule?
A: 11600 ng/mL

Q: And the concentration at 120 min (male, CD-1, mouse, po, 30 mg/kg, PO 30 mg/kg, 120 min, read-out: Plasma concentration C (mean))?
A: 9140 ng/mL

Q: And the concentration at 240 min (male, CD-1, mouse, po, 30 mg/kg, PO 30 mg/kg, 240 min, single animals, read-out: Plasma concentration, Final (individual mouse))?
A: 5200 ng/mL

Q: And the concentration at 240 min (male, CD-1, mouse, po, 30 mg/kg, PO 30 mg/kg, 240 min, read-out: Plasma concentration C (mean))?
A: 3600 ng/mL

Q: And the concentration at 360 min (male, CD-1, mouse, po, 30 mg/kg, PO 30 mg/kg, 360 min, single animals, read-out: Plasma concentration, Final (individual mouse))?
A: 4400 ng/mL

Q: And the concentration at 360 min (male, CD-1, mouse, po, 30 mg/kg, PO 30 mg/kg, 360 min, read-out: Plasma concentration C (mean))?
A: 4510 ng/mL

Q: And the concentration at 480 min (male, CD-1, mouse, po, 30 mg/kg, PO 30 mg/kg, 480 min, read-out: Plasma concentration C (mean))?
A: 5240 ng/mL

Q: What about the concentration at 1440 min (male, CD-1, mouse, po, 30 mg/kg, PO 30 mg/kg, 1440 min, read-out: Plasma concentration C (mean)) of the same molecule?
A: 187 ng/mL

Q: What about the AUC (male, CD-1, mouse, po, 30 mg/kg p.o.) of the same molecule?
A: 108000 ng·h/mL

Q: And the “Final plasma concentration, individual sample” value (from here on “Final plasma concentration”) (5 min, listed as Z5090949977, 10 mg/kg)?
A: 2415 ng/mL and 2458 ng/mL

Q: What about the “Final plasma concentration” value (15 min, listed as Z5090949977, 10 mg/kg) of the same molecule?
A: 7952 ng/mL and 6935 ng/mL

Q: What about the “Final plasma concentration” value (30 min, listed as Z5090949977, 10 mg/kg) of the same molecule?
A: 4477 ng/mL and 7535 ng/mL

Q: And the “Final plasma concentration” value (60 min, listed as Z5090949977, 10 mg/kg)?
A: 9306 ng/mL and 9568 ng/mL

Q: And the “Final plasma concentration” value (120 min, listed as Z5090949977, 10 mg/kg)?
A: 9975 ng/mL and 654 ng/mL and 8498 ng/mL

Q: And the “Final plasma concentration” value (240 min, listed as Z5090949977, 10 mg/kg)?
A: 3566 ng/mL and 4977 ng/mL and 2222 ng/mL

Q: And the “Final plasma concentration” value (360 min, listed as Z5090949977, 10 mg/kg)?
A: 2567 ng/mL and 1708 ng/mL

Q: And the “Final plasma concentration” value (480 min, listed as Z5090949977, 10 mg/kg)?
A: 872 ng/mL and 500 ng/mL

Q: And the “Final plasma concentration” value (1440 min, listed as Z5090949977, 10 mg/kg)?
A: 13.6 ng/mL and 18.4 ng/mL

Q: What about the “Plasma concentration, Final (individual mouse)” value (“Plasma concentration, Final” for short) (IV 10 mg/kg, 5 min, single animals, listed as Z5090949977, 10 mg/kg) of the same molecule?
A: 28260 ng/mL and 26240 ng/mL

Q: What about the “Plasma concentration, Final” value (IV 10 mg/kg, 15 min, single animals, listed as Z5090949977, 10 mg/kg) of the same molecule?
A: 16140 ng/mL and 20380 ng/mL

Q: And the “Plasma concentration, Final” value (IV 10 mg/kg, 30 min, single animals, listed as Z5090949977, 10 mg/kg)?
A: 14230 ng/mL and 12830 ng/mL

Q: What about the “Plasma concentration, Final” value (IV 10 mg/kg, 60 min, single animals, listed as Z5090949977, 10 mg/kg) of the same molecule?
A: 8422 ng/mL and 12040 ng/mL

Q: What about the “Plasma concentration, Final” value (IV 10 mg/kg, 120 min, single animals, listed as Z5090949977, 10 mg/kg) of the same molecule?
A: 4081 ng/mL and 3418 ng/mL

Q: What about the “Plasma concentration, Final” value (IV 10 mg/kg, 240 min, single animals, listed as Z5090949977, 10 mg/kg) of the same molecule?
A: 2055 ng/mL and 1818 ng/mL

Q: And the “Plasma concentration, Final” value (IV 10 mg/kg, 360 min, single animals, listed as Z5090949977, 10 mg/kg)?
A: 2041 ng/mL and 1884 ng/mL

Q: What about the “Plasma concentration, Final” value (IV 10 mg/kg, 480 min, single animals, listed as Z5090949977, 10 mg/kg) of the same molecule?
A: 829 ng/mL and 1219 ng/mL and 1675 ng/mL

Q: What about the “Plasma concentration, Final” value (IV 10 mg/kg, 1440 min, single animals, listed as Z5090949977, 10 mg/kg) of the same molecule?
A: 31.5 ng/mL and 13.7 ng/mL and 84.5 ng/mL

Q: And the “Plasma concentration, Final” value (PO 30 mg/kg, 5 min, single animals, listed as Z5090949977, 30 mg/kg)?
A: 2091 ng/mL and 7833 ng/mL and 3112 ng/mL

Q: What about the “Plasma concentration, Final” value (PO 30 mg/kg, 15 min, single animals, listed as Z5090949977, 30 mg/kg) of the same molecule?
A: 23680 ng/mL and 31270 ng/mL

Q: What about the “Plasma concentration, Final” value (PO 30 mg/kg, 30 min, single animals, listed as Z5090949977, 30 mg/kg) of the same molecule?
A: 18100 ng/mL and 24020 ng/mL

Q: And the “Plasma concentration, Final” value (PO 30 mg/kg, 60 min, single animals, listed as Z5090949977, 30 mg/kg)?
A: 14280 ng/mL and 20060 ng/mL

Q: And the “Plasma concentration, Final” value (PO 30 mg/kg, 120 min, single animals, listed as Z5090949977, 30 mg/kg)?
A: 8277 ng/mL and 7588 ng/mL

Q: What about the “Plasma concentration, Final” value (PO 30 mg/kg, 240 min, single animals, listed as Z5090949977, 30 mg/kg) of the same molecule?
A: 2686 ng/mL and 2897 ng/mL

Q: And the “Plasma concentration, Final” value (PO 30 mg/kg, 360 min, single animals, listed as Z5090949977, 30 mg/kg)?
A: 3917 ng/mL and 5212 ng/mL

Q: What about the “Plasma concentration, Final” value (PO 30 mg/kg, 480 min, single animals, listed as Z5090949977, 30 mg/kg) of the same molecule?
A: 8465 ng/mL and 5117 ng/mL and 2129 ng/mL

Q: What about the “Plasma concentration, Final” value (PO 30 mg/kg, 1440 min, single animals, listed as Z5090949977, 30 mg/kg) of the same molecule?
A: 154 ng/mL and 78.9 ng/mL and 329 ng/mL

— article PMC10700596 (Nature Communications, 2023)
